According to patent US12398179B2, “Nanomolar peptides and derivatives to differentially modulate ephrin receptors” (Sanford Burnham Prebys Medical Discovery Institute, priority 2019, dated 2025):
≈ marks a conversion by molar mass, not a printed value. Non-standard residues stand in square brackets, D forms with d. Residues, ends and D or L forms follow the SMILES beside them. No end group written: not given here. *: point of attachment. Biotin = O=C1N[C@H]2[C@H](CS[C@H]2CCCCC(=O)*)N1; βAla = NCCC(=O)O

How the values were obtained:
[1] = Peptide solubility in PBS/H2O
[2] = molecular target: EphA2 (Homo sapiens, UniProt P29317); assay: ELISA: inhibition of ephrin-A5 AP binding to immobilized EphA2 Fc; design: the immobilized EphA2 extracellular domain fused to the Fc portion of an antibody (EphA2 Fc); settings: average ± SE
Method: (FIG. 2A) Representative ELISAs comparing the ability of the peptides to inhibit binding of ephrin-A5 fused to alkaline phosphatase (ephrin-A5 AP) to the immobilized EphA2 extracellular domain fused to the Fc portion of an antibody (EphA2 Fc). The graphs show averages±SE from triplicate measurements from a representative experiment. IC50 values calculated from the fitted curves in each experiment are shown. All concentrations are nM and the 100 nM peptide concentration is outlined in red. (FIG. 2B) Ephrin-A5 AP binding to the indicated EphA receptors and ephrin-B2 AP binding to the indicated EphB receptors in the presence of the indicated peptide, normalized to ephrin binding without peptide. The bars show averages±SE from triplicate measurements.

[3] = PBS, Solubility in PBS (mg/ml), PBS (first figure of cell)
[4] = water, Solubility in H2O (mg/ml), H2O (second figure of cell)

Chain of EphA2 (P29317 24-537 limits assumed, species assumed): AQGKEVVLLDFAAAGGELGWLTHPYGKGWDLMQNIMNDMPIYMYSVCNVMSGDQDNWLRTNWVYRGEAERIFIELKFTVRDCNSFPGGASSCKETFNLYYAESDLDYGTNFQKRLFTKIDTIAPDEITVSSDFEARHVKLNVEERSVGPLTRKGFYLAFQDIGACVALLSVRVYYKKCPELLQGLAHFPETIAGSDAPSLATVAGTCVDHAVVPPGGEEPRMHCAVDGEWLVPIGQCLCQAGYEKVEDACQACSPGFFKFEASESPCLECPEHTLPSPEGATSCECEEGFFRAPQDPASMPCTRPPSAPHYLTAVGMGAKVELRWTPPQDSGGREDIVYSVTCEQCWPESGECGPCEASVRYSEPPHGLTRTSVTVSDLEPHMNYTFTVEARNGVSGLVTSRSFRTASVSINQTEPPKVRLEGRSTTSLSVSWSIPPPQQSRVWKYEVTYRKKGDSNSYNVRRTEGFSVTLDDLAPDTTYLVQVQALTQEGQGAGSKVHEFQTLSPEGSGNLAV

solubility [1, 3] [µg/mL] | IC50 [2] [nM] | Molecule | other results
10000 (≈ 8.86 mM) | – | CSCC[C@H](NC(=O)[C@@H]1CCCN1C(=O)[C@@H](NC(=O)[C@H](CO)NC(=O)[C@H](CC(=O)O)NC(=O)[C@@H]1CCCN1C(=O)[C@H](Cc1ccc(O)cc1)NC(=O)[C@H](C)NC(=O)[C@H](CO)NC(=O)[C@@H](N)Cc1ccc(O)cc1)C(C)C)C(N)=O [YSA1-10am] | solubility [1, 4]: 10000 µg/mL (≈ 8.86 mM)
< 100 | – | CC(C)C[C@H](NC(=O)[C@H](Cc1c[nH]c2ccccc12)NC(=O)[C@H](C)NC(=O)CNC(=O)[C@@H](N)CSCC(N)=O)C(=O)N[C@@H](C)C(=O)N[C@@H](Cc1ccc(O)cc1)C(=O)N1CCC[C@H]1C(=O)N[C@@H](CC(=O)O)C(=O)N[C@@H](CO)C(=O)N[C@H](C(=O)N1CCC[C@H]1C(=O)N[C@@H](Cc1ccc(O)cc1)C(=O)N[C@@H](CCCNC(=N)N)C(=O)N1CCC[C@H]1C(=O)N[C@@H](CCCCNC(=O)CCCC[C@@H]1SC[C@@H]2NC(=O)N[C@@H]21)C(=O)O)C(C)C [CcamGA-WLA-YRPK-bio] | –
– | 1500 | WLAYPDSVPM-NH2 [WLAam] | –
10000 (≈ 5.88 mM) | – | CSCC[C@H](NC(=O)[C@H](CCSC)NC(=O)[C@@H]1CCCN1C(=O)[C@@H](NC(=O)[C@H](CO)NC(=O)[C@H](CC(=O)O)NC(=O)[C@@H]1CCCN1C(=O)[C@H](Cc1ccc(O)cc1)NC(=O)[C@H](C)NC(=O)[C@H](CO)NC(=O)[C@@H](N)Cc1ccc(O)cc1)C(C)C)C(=O)N[C@@H](CO)C(=O)N[C@@H](CCCCNC(=O)CCCC[C@@H]1SC[C@@H]2NC(=O)N[C@@H]21)C(=O)O [YSA-K-bio] | solubility [1, 4]: 10000 µg/mL (≈ 5.88 mM)
2000 (≈ 1.16 mM) | – | CC(C)C[C@H](NC(=O)[C@H](Cc1c[nH]c2ccccc12)NC(=O)CCN)C(=O)N[C@@H](C)C(=O)N[C@@H](Cc1ccc(O)cc1)C(=O)N1CCC[C@H]1C(=O)N[C@@H](CC(=O)O)C(=O)N[C@@H](CO)C(=O)N[C@H](C(=O)N1CCC[C@H]1C(=O)N[C@@H](Cc1ccc(O)cc1)C(=O)N[C@@H](CO)C(=O)N[C@@H](CCCCNC(=O)CCCC[C@@H]1SC[C@@H]2NC(=O)N[C@@H]21)C(=O)O)C(C)C [βA-WLA-YSK-bio] (H-[βAla]WLAYPDSVPYSK(Biotin)-OH; N-terminus and C-terminus assumed) | –
– | 730 ± 90 | CC(C)C[C@H](NC(=O)[C@H](Cc1c[nH]c2ccccc12)NC(=O)CCN)C(=O)N[C@@H](C)C(=O)N[C@@H](Cc1ccc(O)cc1)C(=O)N1CCC[C@H]1C(=O)N[C@@H](CC(=O)O)C(=O)N[C@@H](CO)C(=O)N[C@H](C(=O)N1CCC[C@H]1C(=O)N[C@@H](Cc1ccc(O)cc1)C(=O)N[C@@H](CCCCNC(=O)CCCC[C@@H]1SC[C@@H]2NC(=O)N[C@@H]21)C(=O)O)C(C)C [βA-WLA-YK-bio] (H-[βAla]WLAYPDSVPYK(Biotin)-OH; N-terminus and C-terminus assumed) | –
– | 400 ± 70 | CC(C)C[C@H](NC(=O)[C@H](Cc1c[nH]c2ccccc12)NC(=O)CCN)C(=O)N[C@@H](C)C(=O)N[C@@H](Cc1ccc(O)cc1)C(=O)N1CCC[C@H]1C(=O)N[C@@H](CC(=O)O)C(=O)N[C@@H](CO)C(=O)N[C@H](C(=O)N1CCC[C@H]1C(=O)N[C@@H](Cc1ccc(O)cc1)C(=O)NCC(=O)N[C@@H](CO)C(=O)N[C@@H](CCCCNC(=O)CCCC[C@@H]1SC[C@@H]2NC(=O)N[C@@H]21)C(=O)O)C(C)C [βA-WLA-YGSK-bio] (H-[βAla]WLAYPDSVPYGSK(Biotin)-OH; N-terminus and C-terminus assumed) | –
10000 (≈ 4.96 mM) | – | CC(C)C[C@H](NC(=O)[C@H](Cc1c[nH]c2ccccc12)NC(=O)[C@H](C)NC(=O)[C@@H](N)CCCCNC(=O)CCCC[C@@H]1SC[C@@H]2NC(=O)N[C@@H]21)C(=O)N[C@@H](C)C(=O)N[C@@H](Cc1ccc(O)cc1)C(=O)N1CCC[C@H]1C(=O)N[C@@H](CC(=O)O)C(=O)N[C@@H](CO)C(=O)N[C@H](C(=O)N1CCC[C@H]1C(=O)N[C@@H](Cc1ccc(O)cc1)C(=O)N[C@@H](CCCNC(=N)N)C(=O)N1CCC[C@H]1C(=O)N[C@@H](CCCCN)C(N)=O)C(C)C [K-bioA-WLA-YRPKam] | solubility ([1]; H2O, Solubility in H2O (mg/ml), H2O (second figure of cell)): 10000 µg/mL (≈ 4.96 mM)
